Values after ≈ are worked out from the molar mass of the structure shown. Like-named read-outs stand apart in the source and are kept apart here. Where a SMILES comes first, the peptide text is derived from it. [ ]: non-standard residue; d: D form.
What was measured:
MDRAB 12035 [1] = assay: microbe, parasite or virus in culture; assay type: cell-based, Acinetobacter baumannii
Method in brief: (§1)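 Peptides were serially diluted twofold in Mueller-Hinton medium and combined 1:1 with bacterial suspensions prepared at 2×10^6 CFU. Readout was the minimal inhibitory concentration, i.e. the lowest concentration with no growth.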

A. baumannii [2] = assay: microbe, parasite or virus in culture; assay type: cell-based, Acinetobacter baumannii
Method in brief: as §1

[3] = test system: multi-drug resistant bacteria; assay: MIC, summary statements for multi-drug resistant bacteria; assay type: cell-based
Experimental: For the antibacterial activity, a minimal inhibitory concentration (MIC) of a peptide in which fungus bodies were not split in an MH medium with sufficient nutrients was measured.
Specifically, the strains described in the following [Table 2] were purchased and diluted with an MH medium such that the number of bacteria was 2×10^6 colony-forming units (CFUs), 100 μl of each of the diluted strains was aliquoted into a 96-well microtiter plate, and then 100 μl of a peptide solution diluted with the MH medium (solution diluted stepwise at 2: 1) was added to each well.

MDREC 1229 = assay type: cell-based, Escherichia coli
Method in brief: (§2)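 Broth microdilution in MH medium; strains were diluted to 2×10^6 CFU per ml before plating. Peptide was serially diluted stepwise at 2:1 starting from its MIC, and MH-diluted antibiotic was then added to determine MIC. The reversed arrangement was also tested.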

E. coli = assay type: cell-based, Escherichia coli; details: E. coli
Method in brief: as §2

MDRAB 12035 [4] = assay: MIC of antimicrobial peptide during combined treatment with antibiotic; assay type: cell-based, Acinetobacter baumannii
Method in brief: as §2

A. baumannii [5] = assay: as above; assay type: cell-based, Acinetobacter baumannii
Method in brief: as §2

S. typhimurium = assay: microbe, parasite or virus in culture; assay type: cell-based, Salmonella typhimurium
Method in brief: as §1

MDRST 8009 = assay type: cell-based, Salmonella typhimurium; details: agent alone
Method in brief: as §1

MDRAB 12036 = assay type: cell-based, Acinetobacter baumannii
Method in brief: as §1

[6] = erythromycin 32 μg/ml (Conc./MIC 1/8)
[7] = erythromycin 64 μg/ml (Conc./MIC 1/4)
[8] = erythromycin […] (Conc./MIC 1/2)
[9] = linezolid 64 μg/ml (Conc./MIC 1/8)
[10] = linezolid 512 μg/ml (Conc./MIC 1)
[11] = vancomycin 512 μg/ml (Conc./MIC 1/2)
[12] = vancomycin 1024 μg/ml (Conc./MIC 1)
[13] = with Erythromycin […] (Conc./MIC 1)
[14] = with Linezolid […] (Conc./MIC 1)
[15] = with Vancomycin 1024 μg/ml (Conc./MIC 1)
[16] = erythromycin 4 μg/ml (Conc./MIC 1/8)
[17] = erythromycin 8 μg/ml (Conc./MIC 1/4)
[18] = erythromycin 16 μg/ml (Conc./MIC 1/2)
[19] = erythromycin 32 μg/ml (Conc./MIC 1)
[20] = linezolid 32 μg/ml (Conc./MIC 1/8)
[21] = linezolid 64 μg/ml (Conc./MIC 1/4)

CC[C@H](C)[C@H](NC(=O)[C@H](CCCCN)NC(=O)[C@H](Cc1c[nH]c2ccccc12)NC(=O)[C@@H](N)CCCNC(=N)N)C(=O)N[C@@H](Cc1ccccc1)C(=O)N[C@@H](CCCCN)C(=O)N[C@@H](CCCCN)C(=O)N[C@H](C(=O)N1CCC[C@H]1C(=O)N[C@@H](CCCCN)C(=O)N[C@@H](CC(C)C)C(=O)N[C@@H](CC(C)C)C(=O)N[C@@H](Cc1c[nH]cn1)C(=O)N[C@@H](CCC(=O)O)C(=O)N[C@@H](C)C(=O)N[C@@H](CCCCN)C(=O)N[C@@H](CCCCN)C(=O)N[C@@H](Cc1c[nH]c2ccccc12)C(N)=O)[C@@H](C)CC [PapMA-13, RWK IFK KIP KLL HEA KKW-NH2] (H-RWKIFKKIPKLLHEAKKW-NH2; N-terminus assumed)
Minimal inhibitory concentration MIC (MDRAB 12035 [1]): 16 µg/mL (≈ 6.81 µM)
Peptide MIC, peptide alone (MDRAB 12035 [1]): 16 µg/mL
Minimal inhibitory concentration MIC (A. baumannii [2]): 16 µg/mL (≈ 6.81 µM)
Peptide MIC, peptide alone (A. baumannii [2]): 16 µg/mL
Antibacterial activity relative to PapMA-1 (A. baumannii [2]; A. baumannii and S. typhimurium): at least twice as high
Antibacterial activity relative to PapMA-1 [3]: twice to four times higher
Peptide MIC during treatment with antibiotic (MDREC 1229; [6]): 2 µg/mL
Peptide MIC during treatment with antibiotic (MDREC 1229; [7]): 2 µg/mL
Peptide MIC during treatment with antibiotic (MDREC 1229; erythromycin […] (Conc./MIC 1)): 0 µg/mL
Peptide MIC during treatment with antibiotic (MDREC 1229; [8]): 2 µg/mL
Peptide MIC during treatment with antibiotic (MDREC 1229; [9]): 4 µg/mL
Peptide MIC during treatment with antibiotic (MDREC 1229; [10]): 0 µg/mL
Peptide MIC during treatment with antibiotic (MDREC 1229; linezolid […] (Conc./MIC 1/2)): 2 µg/mL
Peptide MIC during treatment with antibiotic (MDREC 1229; linezolid […] (Conc./MIC 1/4)): 2 µg/mL
Peptide MIC during treatment with antibiotic (MDREC 1229; [11]): 2 µg/mL
Peptide MIC during treatment with antibiotic (MDREC 1229; [12]): 1 µg/mL
Peptide MIC during treatment with antibiotic (MDREC 1229; vancomycin […] (Conc./MIC 1/4)): 4 µg/mL
Peptide MIC during treatment with antibiotic (MDREC 1229; vancomycin […] (Conc./MIC 1/8)): 8 µg/mL
Peptide MIC (E. coli; [13]): 0 µg/mL
Peptide MIC (E. coli; [14]): 0 µg/mL
Peptide MIC (E. coli; [15]): 0 µg/mL
Peptide MIC during treatment with erythromycin (MDRAB 12035 [4]; [16]): 4 µg/mL
Peptide MIC during treatment with erythromycin (MDRAB 12035 [4]; [17]): 2 µg/mL
Peptide MIC during treatment with erythromycin (MDRAB 12035 [4]; [18]): 1 µg/mL
Peptide MIC during treatment with erythromycin (MDRAB 12035 [4]; [19]): 0 µg/mL
Peptide MIC during treatment with linezolid (MDRAB 12035 [4]; [9]): 2 µg/mL
Peptide MIC during treatment with linezolid (MDRAB 12035 [4]; [10]): 0 µg/mL
Peptide MIC during treatment with linezolid (MDRAB 12035 [4]; linezolid […] (Conc./MIC 1/2)): 1 µg/mL
Peptide MIC during treatment with linezolid (MDRAB 12035 [4]; linezolid […] (Conc./MIC 1/4)): 1 µg/mL
Peptide MIC during treatment with vancomycin (MDRAB 12035 [4]; [11]): 1 µg/mL
Peptide MIC during treatment with vancomycin (MDRAB 12035 [4]; [12]): 1 µg/mL
Peptide MIC during treatment with vancomycin (MDRAB 12035 [4]; vancomycin […] (Conc./MIC 1/4)): 1 µg/mL
Peptide MIC during treatment with vancomycin (MDRAB 12035 [4]; vancomycin […] (Conc./MIC 1/8)): 2 µg/mL
Peptide MIC during treatment with antibiotic (A. baumannii [5]; [16]): 4 µg/mL
Peptide MIC during treatment with antibiotic (A. baumannii [5]; [17]): 2 µg/mL
Peptide MIC during treatment with antibiotic (A. baumannii [5]; [18]): 1 µg/mL
Peptide MIC during treatment with antibiotic (A. baumannii [5]; [19]): 0 µg/mL
Peptide MIC during treatment with antibiotic (A. baumannii [5]; [20]): 2 µg/mL
Peptide MIC during treatment with antibiotic (A. baumannii [5]; [21]): 2 µg/mL
Peptide MIC during treatment with antibiotic (A. baumannii [5]; linezolid […] (Conc./MIC 1)): 0 µg/mL
Peptide MIC during treatment with antibiotic (A. baumannii [5]; linezolid […] (Conc./MIC 1/2)): 1 µg/mL
Peptide MIC during treatment with antibiotic (A. baumannii [5]; [11]): 0.25 µg/mL
Peptide MIC during treatment with antibiotic (A. baumannii [5]; [12]): 0 µg/mL
Peptide MIC during treatment with antibiotic (A. baumannii [5]; vancomycin […] (Conc./MIC 1/4)): 0.25 µg/mL
Peptide MIC during treatment with antibiotic (A. baumannii [5]; vancomycin […] (Conc./MIC 1/8)): 1 µg/mL
Minimal inhibitory concentration MIC (S. typhimurium): 16 µg/mL (≈ 6.81 µM)
Minimal inhibitory concentration MIC (MDRST 8009): 16 µg/mL (≈ 6.81 µM)
Minimal inhibitory concentration MIC (MDRAB 12036): 16 µg/mL (≈ 6.81 µM)

CC[C@H](C)[C@H](NC(=O)[C@H](CCCCN)NC(=O)[C@H](Cc1c[nH]c2ccccc12)NC(=O)[C@@H](N)CCCNC(=N)N)C(=O)N[C@@H](Cc1ccccc1)C(=O)N[C@@H](CCCCN)C(=O)N[C@@H](CCCCN)C(=O)N[C@H](C(=O)N[C@H](CCCCN)C(=O)N[C@@H](CCCCN)C(=O)N[C@@H](CC(C)C)C(=O)N[C@@H](CC(C)C)C(=O)N[C@@H](Cc1c[nH]cn1)C(=O)N[C@@H](CCCCN)C(=O)N[C@@H](C)C(=O)N[C@@H](CCCCN)C(=O)N[C@@H](CCCCN)C(=O)N[C@@H](Cc1c[nH]c2ccccc12)C(N)=O)[C@@H](C)CC [PapMA-18, RWK IFK KIk KLL HKA KKW-NH2] (H-RWKIFKKI[dK]KLLHKAKKW-NH2; N-terminus assumed)
Minimal inhibitory concentration MIC (MDRAB 12035 [1]): 32 µg/mL (≈ 13.5 µM)
Peptide MIC, peptide alone (MDRAB 12035 [1]): 32 µg/mL
Minimal inhibitory concentration MIC (A. baumannii [2]): 32 µg/mL (≈ 13.5 µM)
Peptide MIC, peptide alone (A. baumannii [2]): 32 µg/mL
Peptide MIC during treatment with antibiotic (MDREC 1229; [6]): 2 µg/mL
Peptide MIC during treatment with antibiotic (MDREC 1229; [7]): 2 µg/mL
Peptide MIC during treatment with antibiotic (MDREC 1229; erythromycin […] (Conc./MIC 1)): 0 µg/mL
Peptide MIC during treatment with antibiotic (MDREC 1229; [8]): 2 µg/mL
Peptide MIC during treatment with antibiotic (MDREC 1229; [9]): 4 µg/mL
Peptide MIC during treatment with antibiotic (MDREC 1229; [10]): 0 µg/mL
Peptide MIC during treatment with antibiotic (MDREC 1229; linezolid […] (Conc./MIC 1/2)): 1 µg/mL
Peptide MIC during treatment with antibiotic (MDREC 1229; linezolid […] (Conc./MIC 1/4)): 4 µg/mL
Peptide MIC during treatment with antibiotic (MDREC 1229; [11]): 2 µg/mL
Peptide MIC during treatment with antibiotic (MDREC 1229; [12]): 1 µg/mL
Peptide MIC during treatment with antibiotic (MDREC 1229; vancomycin […] (Conc./MIC 1/4)): 4 µg/mL
Peptide MIC during treatment with antibiotic (MDREC 1229; vancomycin […] (Conc./MIC 1/8)): 8 µg/mL
Peptide MIC (E. coli; [13]): 0 µg/mL
Peptide MIC (E. coli; [14]): 0 µg/mL
Peptide MIC (E. coli; [15]): 0 µg/mL
Peptide MIC during treatment with erythromycin (MDRAB 12035 [4]; [16]): 4 µg/mL
Peptide MIC during treatment with erythromycin (MDRAB 12035 [4]; [17]): 4 µg/mL
Peptide MIC during treatment with erythromycin (MDRAB 12035 [4]; [18]): 4 µg/mL
Peptide MIC during treatment with erythromycin (MDRAB 12035 [4]; [19]): 0 µg/mL
Peptide MIC during treatment with linezolid (MDRAB 12035 [4]; [9]): 4 µg/mL
Peptide MIC during treatment with linezolid (MDRAB 12035 [4]; [10]): 0 µg/mL
Peptide MIC during treatment with linezolid (MDRAB 12035 [4]; linezolid […] (Conc./MIC 1/2)): 1 µg/mL
Peptide MIC during treatment with linezolid (MDRAB 12035 [4]; linezolid […] (Conc./MIC 1/4)): 4 µg/mL
Peptide MIC during treatment with vancomycin (MDRAB 12035 [4]; [11]): 2 µg/mL
Peptide MIC during treatment with vancomycin (MDRAB 12035 [4]; [12]): 1 µg/mL
Peptide MIC during treatment with vancomycin (MDRAB 12035 [4]; vancomycin […] (Conc./MIC 1/4)): 4 µg/mL
Peptide MIC during treatment with vancomycin (MDRAB 12035 [4]; vancomycin […] (Conc./MIC 1/8)): 4 µg/mL
Peptide MIC during treatment with antibiotic (A. baumannii [5]; [16]): 4 µg/mL
Peptide MIC during treatment with antibiotic (A. baumannii [5]; [17]): 4 µg/mL
Peptide MIC during treatment with antibiotic (A. baumannii [5]; [18]): 4 µg/mL
Peptide MIC during treatment with antibiotic (A. baumannii [5]; [19]): 0 µg/mL
Peptide MIC during treatment with antibiotic (A. baumannii [5]; [20]): 8 µg/mL
Peptide MIC during treatment with antibiotic (A. baumannii [5]; [21]): 4 µg/mL
Peptide MIC during treatment with antibiotic (A. baumannii [5]; linezolid […] (Conc./MIC 1)): 0 µg/mL
Peptide MIC during treatment with antibiotic (A. baumannii [5]; linezolid […] (Conc./MIC 1/2)): 2 µg/mL
Peptide MIC during treatment with antibiotic (A. baumannii [5]; [11]): 0.25 µg/mL
Peptide MIC during treatment with antibiotic (A. baumannii [5]; [12]): 0 µg/mL
Peptide MIC during treatment with antibiotic (A. baumannii [5]; vancomycin […] (Conc./MIC 1/4)): 0.5 µg/mL
Peptide MIC during treatment with antibiotic (A. baumannii [5]; vancomycin […] (Conc./MIC 1/8)): 4 µg/mL
Minimal inhibitory concentration MIC (S. typhimurium): 32 µg/mL (≈ 13.5 µM)
Minimal inhibitory concentration MIC (MDRST 8009): 64 µg/mL (≈ 26.9 µM)
Minimal inhibitory concentration MIC (MDRAB 12036): 32 µg/mL (≈ 13.5 µM)

From patent US11214594B2, “Antimicrobial peptide having synergistic antibacterial effect with antibiotics on multidrug resistant bacteria, and use thereof” (priority 2016, dated 2022)
